#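 Following 48 hours of exposure in 96-well plates, responses at five concentrations were used to interpolate endpoints linearly. The concentration for full growth arrest is given as TGI.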
# Columns and labels:
# Test in all cases: NCI tumour cell line growth inhibition, 48 h
# SK-MEL-2 melanoma = test system: SK-MEL-2 melanoma
# LOX IMVI melanoma = test system: LOX IMVI melanoma
# SNB-75 CNS = test system: SNB-75 CNS
# SN12C renal = test system: SN12C renal
# LXFL 529 NSCLC = test system: LXFL 529 NSCLC
# SF-268 CNS = test system: SF-268 CNS
# SNB-19 CNS = test system: SNB-19 CNS
# ACHN renal = test system: ACHN renal
# HOP-62 NSCLC = test system: HOP-62 NSCLC
# TK-10 renal = test system: TK-10 renal
# M14 melanoma = test system: M14 melanoma
# OVCAR-5 ovarian = test system: OVCAR-5 ovarian
# NCI-H460 lung = test system: NCI-H460 lung
# IGROV1 ovarian = test system: IGROV1 ovarian
# HOP-18 NSCLC = test system: HOP-18 NSCLC
# SF-295 CNS = test system: SF-295 CNS
# SK-OV-3 ovarian = test system: SK-OV-3 ovarian
# UACC-257 melanoma = test system: UACC-257 melanoma
# HCT-116 colon = test system: HCT-116 colon
# K-562 leukemia = test system: K-562 leukemia
# HCT-15 colon = test system: HCT-15 colon
# KM20L2 colon = test system: KM20L2 colon
# M19-MEL melanoma = test system: M19-MEL melanoma
# MOLT-4 leukemia = test system: MOLT-4 leukemia
# SF-539 CNS = test system: SF-539 CNS
# DMS 273 small cell lung = test system: DMS 273 small cell lung
# A498 renal = test system: A498 renal
# XF 498 CNS = test system: XF 498 CNS
# HOP-92 NSCLC = test system: HOP-92 NSCLC
# COLO 205 colon = test system: COLO 205 colon
# OVCAR-4 ovarian = test system: OVCAR-4 ovarian
# RPMI-8226 leukemia = test system: RPMI-8226 leukemia
# CCRF-CEM leukemia = test system: CCRF-CEM leukemia
# OVCAR-8 ovarian = test system: OVCAR-8 ovarian
# SK-MEL-28 melanoma = test system: SK-MEL-28 melanoma
# HL-60(TB) leukemia = test system: HL-60(TB) leukemia
# CAKI-1 renal = test system: CAKI-1 renal
# SNB-78 CNS = test system: SNB-78 CNS
# RXF 393 renal = test system: RXF 393 renal
# SR leukemia = test system: SR leukemia
# NCI-H23 lung = test system: NCI-H23 lung
# A549 NSCLC = test system: A549 NSCLC
# NCI-H522 lung = test system: NCI-H522 lung
# SK-MEL-5 melanoma = test system: SK-MEL-5 melanoma
# HCC-2998 colon = test system: HCC-2998 colon
# NCI-H226 lung = test system: NCI-H226 lung
# UO-31 renal = test system: UO-31 renal
# DLD-1 colon = test system: DLD-1 colon
# SW-620 colon = test system: SW-620 colon
# OVCAR-3 ovarian = test system: OVCAR-3 ovarian
# EKVX NSCLC = test system: EKVX NSCLC
# RXF-631 renal = test system: RXF-631 renal
# KM12 colon = test system: KM12 colon
# HT29 colon = test system: HT29 colon
# MALME-3M melanoma = test system: MALME-3M melanoma
# U251 CNS = test system: U251 CNS
# 786-0 renal = test system: 786-0 renal
# DMS 114 small cell lung = test system: DMS 114 small cell lung
# UACC-62 melanoma = test system: UACC-62 melanoma
smiles,measurement,setting,value
CCc1nc2c(O)ccc(O)c2nc1C,TGI,SK-MEL-2 melanoma,32.2 µM
same,TGI,LOX IMVI melanoma,29.9 µM
same,TGI,SNB-75 CNS,37.6 µM
same,TGI,SN12C renal,29.6 µM
same,TGI,LXFL 529 NSCLC,15.8 µM
same,TGI,SF-268 CNS,34.2 µM
same,TGI,SNB-19 CNS,33.7 µM
same,TGI,ACHN renal,23 µM
same,TGI,HOP-62 NSCLC,32.3 µM
same,TGI,TK-10 renal,37.1 µM
same,TGI,M14 melanoma,28.3 µM
same,TGI,OVCAR-5 ovarian,33.5 µM
same,TGI,NCI-H460 lung,36.1 µM
same,TGI,IGROV1 ovarian,33.1 µM
same,TGI,HOP-18 NSCLC,35.3 µM
same,TGI,SF-295 CNS,34.2 µM
same,TGI,SK-OV-3 ovarian,34.2 µM
same,TGI,UACC-257 melanoma,31.4 µM
same,TGI,HCT-116 colon,20.9 µM
same,TGI,K-562 leukemia,> 20.8 µM
same,TGI,HCT-15 colon,30.6 µM
same,TGI,KM20L2 colon,34 µM
same,TGI,M19-MEL melanoma,19.4 µM
same,TGI,MOLT-4 leukemia,> 39.5 µM
same,TGI,SF-539 CNS,31.4 µM
same,TGI,DMS 273 small cell lung,37 µM
same,TGI,A498 renal,35.2 µM
same,TGI,XF 498 CNS,39.4 µM
same,TGI,HOP-92 NSCLC,13.7 µM
same,TGI,COLO 205 colon,7.26 µM
same,TGI,OVCAR-4 ovarian,17.3 µM
same,TGI,RPMI-8226 leukemia,> 43.8 µM
same,TGI,CCRF-CEM leukemia,> 22.3 µM
same,TGI,OVCAR-8 ovarian,23.8 µM
same,TGI,SK-MEL-28 melanoma,34.4 µM
same,TGI,HL-60(TB) leukemia,> 21.7 µM
same,TGI,CAKI-1 renal,33.2 µM
same,TGI,SNB-78 CNS,62.6 µM
same,TGI,RXF 393 renal,25.5 µM
same,TGI,SR leukemia,> 100 µM
same,TGI,NCI-H23 lung,33.4 µM
same,TGI,A549 NSCLC,44.5 µM
same,TGI,NCI-H522 lung,6.47 µM
same,TGI,SK-MEL-5 melanoma,31.2 µM
same,TGI,HCC-2998 colon,> 54.9 µM
same,TGI,NCI-H226 lung,29.9 µM
same,TGI,UO-31 renal,33.5 µM
same,TGI,DLD-1 colon,9.35 µM
same,TGI,SW-620 colon,4.1 µM
same,TGI,OVCAR-3 ovarian,28.5 µM
same,TGI,EKVX NSCLC,31.1 µM
same,TGI,RXF-631 renal,34.3 µM
same,TGI,KM12 colon,30.8 µM
same,TGI,HT29 colon,34.9 µM
same,TGI,MALME-3M melanoma,29.3 µM
same,TGI,U251 CNS,30.2 µM
same,TGI,786-0 renal,26.3 µM
same,TGI,DMS 114 small cell lung,36.1 µM
same,TGI,UACC-62 melanoma,27.5 µM

# — PubChem BioAssay (NCI)
